Assay results reported in patent US20260191817A1, “FIBROBLAST MODULATORS IN STROMA-RICH TUMORS” (UNIVERSITEIT GENT, priority 2022, published 2026).
Entries after “also recorded” stand apart in the source; their conditions may differ.

Experiments:
[1] = system: HCA2 hTERT dermal fibroblasts; assay: AFM spheroid stiffness, HCA2 hTERT dermal fibroblasts; format: cell-based; settings: HCA2 hTERT normal dermal fibroblasts; 1 μM, 48 h
Method: (§1) Selectivity for CAFs with respect to normal fibroblasts and other cell types was assessed by performing an identical experiment with normal fibroblasts and other cell types, where compounds were considered selective for CAFs if they only modulate CAF stiffness.
(§2) U-shaped, 384-well ULA plates (cat. no. MS-9384UZ, S-bio) were seeded with a suspension of cell-specific culture media with cells. Cells were allowed to form spheroids for an appropriate time under treatment conditions before use in experiments. Cell culture dishes (cat. no. 734-2814, VWR) were filled with collagen gel and placed at 37° C. for an appropriate time to allow solidification. For each condition, spheroids were pooled in one cell culture dish. The medium was removed (stored at 37° C.) to promote attachment of the bottom of each spheroid to the collagen gel. The cell culture dishes were incubated at 37° C. After the incubation period, the stored medium was carefully (prevent detachment of spheroids) added to the dishes.
(§3) Mechanical measurements were performed using an atomic force microscope. To indent the spheroids an in-house made colloidal probe was used. Force curves were collected using an appropriate setpoint and probe speed (depending on the stiffness of the spheroids). On each spheroid multiple force curves were collected. Collected curves were then processed using the JPK DP software. Young's modulus was extracted from the force curves. All experiments were performed in biological triplicate.
(§4) To generate 3D cultures mimicking the complexity and pathophysiology of in vivo tumors, spheroids were used (cfr. point 4). Spheroids are considered to better simulate cellular heterogeneity, nutrient and oxygen gradients, cell-cell interactions, cell-matrix interactions, gene expression profiles, stromal interactions, therapeutic responses, multicellular resistance, drug penetration and anti-apoptotic signaling.

[2] = system: 4T1 primary tumors and target organs for metastasis; assay: 4T1-based intraductal model: histology and immunohistological stainings; format: in vivo, BALB/c mice; settings: for CD163 staining (tumor-associated macrophages) / CD11b staining (amounts of myeloid cells) / FAP-α staining / Ly6G staining: primary tumor tissue
Method: Isolated tissue of primary tumors, axillary lymph nodes, lungs and livers was fixed in buffered 3.5% formaldehyde for 24 h at room temperature (RT) and embedded in paraffin wax. Sections of 5 μm were deparaffinized, hydrated and stained with hematoxylin and eosin (H&E). To allow analysis, sections were dehydrated and mounted.
For Masson's trichrome staining, 3-5 μm thick sections were deparaffinized, hydrated and incubated ON in Bouin's solution to improve staining quality. The following day, slides were washed in distilled H2O (dH2O) and subsequently submerged 3 times in Biebrich scarlet-acid fuchsin solution, washed again in dH2O and incubated for 20 min in phosphomolybdic-phosphotungstic acid solution. Following the incubation in phosphomolybdic-phosphotungstic acid solution, slides were not rinsed, but immediately incubated in aniline blue solution for 8 min. After a final washing step with dH2O, slides were incubated in 1% acetic acid solution for 8 min. Sections were then quickly dehydrated through 94% ethyl alcohol, absolute alcohol to remove Biebrich scarlet-acid fuchsin staining and xylene to clear the slide before mounting with Tissue-Tek glass mounting medium. The staining visualizes collagen in blue, nuclei in dark red, cytoplasm in red/pink. Quantification of positive staining was established using color deconvolution (for Masson's trichrome staining) followed by automatic counting in ImageJ.
For immunohistochemical staining, antigen retrieval was performed on 3-5 μm thick deparaffinized sections with citrate buffer (10 mM tri-sodium citrate (Santa Cruz Biotechnology, Heidelberg, Germany) for α-SMA, CD11 b, Ly6G, and CD163), pH 6 or with Tris-EDTA buffer [pH 9, 10 mM Tris, 1 mM EDTA (Thermo Fisher Scientific) for PDPN and FAP-α) at 95° C. for 30 min using a pressurized Decloaking Chamber NxGen (Biocare Medical, CA, USA). The slides were cooled down to RT for 30 min and subsequently incubated on an orbital shaker at 20 rpm in a closed microscope box with tris-buffered saline (TBS, Biocare Medical)-wetted tissue paper for all blocking, rinsing (between every incubation step with TBS, 3 times for 2 min at RT) and staining steps. To block endogenous peroxidase activity, slides were first treated with 3% H2O2 in methanol for 10 min. To block non-specific binding sites, the slides were subsequently treated with serum-free protein block (Dako, Heverlee, Belgium) for 10 min.
The slides were then stained with primary antibodies diluted in Antibody Diluent (Dako) for 1 h at RT followed by incubation with secondary antibody for 30 min at RT. The used primary antibodies and dilutions were: anti-α-SMA (1:2000, clone EPR5368, Abcam, Cambridge, UK), anti-PDPN (1:100, clone PMab-1, Abcam), anti-FAP-α (1:100, polyclonal, Abcam), anti-CD11b (1:4000, clone EPR1344, Abcam), anti-Ly6G (1:1000, clone 1A8, Biolegend, CA, USA), anti-CD163 (1:500, clone EPR19518, Abcam). The used secondary antibodies were Rat-on-Mouse HRP-Polymer (Biocare Medical) for PDPN and Ly6G, and ready to-use Dako EnVision+ Rabbit for α-SMA, FAP-α, CD11b, and CD163. For visualization of HRP-positive staining, slides were treated with a 3,3′-diaminobenzidine (DAB)-containing buffer (Dako) for 10 min at RT. Counterstaining with hematoxylin was applied for 5 min at RT, followed by dehydration and mounting of the slides with Tissue-Tek glass mounting medium. Quantification of positive staining was established using color deconvolution (for DAB and hematoxylin counterstaining) followed by automatic counting in ImageJ.

[3] = system: MCF-7/6 breast cancer cells; assay: AFM spheroid stiffness, MCF-7/6 breast cancer cells; format: cell-based, human; settings: 48 h
Method: as §1, §2, §3, §4

[4] = system: primary human atrial fibroblasts; assay: AFM spheroid stiffness, primary human atrial fibroblasts; format: cell-based; settings: 1 μM, 48 h
Method: as §1, §2, §3, §4

[5] = compared to DMSO treatment, data not shown
[6] = primary tumor, compared to DMSO
[7] = primary tumors, compared to DMSO

Row | Compound | spheroid stiffness [1] | size of axillary lymph node metastases (H&E) [2, 5] | Masson's trichrome staining (collagen deposition) ([2]; liver tissue, compared to DMSO) | PDPN staining ([2]; liver tissue, compared to DMSO) | α-SMA staining (CAFs) ([2]; liver tissue, compared to DMSO) | CD163 staining (tumor-associated macrophages) [2] | CD11b staining (amounts of myeloid cells) ([2]; compared to DMSO) | FAP-α staining ([2]; compared to DMSO) | Ly6G staining ([2]; compared to DMSO) | Masson's trichrome staining (collagen deposition) [2, 6] | PDPN staining ([2]; primary tumors, P<0.001) | α-SMA staining (amount of CAFs) [2, 7] | spheroid stiffness ([3]; 1 μM) | spheroid stiffness [4] | size of lung and liver metastases (H&E) [2, 5] | spheroid stiffness ([3]; 0.03-3 μM)
1 | COc1cc2oc(-c3ccc(F)cc3)cc(=O)c2c(OC)c1OC [Compound B1, 2-(4-Fluorophenyl)-5,6,7-trimethoxy-4H-chromen-4-one] | no effect | smaller | significant reduction | significantly decreased | significant reduction | significantly decreased | significantly decreased | significantly decreased | reduction | significantly decreased | significantly decreased | significantly decreased | no effect | did not alter; also recorded: no effect | – | –
2 | COc1cc(C(=O)/C=C/c2ccc(F)cc2)cc(OC)c1OC [Compound A1, 3-(4-Fluorophenyl)-1-(3,4,5-trimethoxyphenyl)prop2-en-1-one] | no effect | – | significant reduction | significantly decreased | significant reduction | significantly decreased | significantly decreased | significantly decreased | reduction | significantly decreased | significantly decreased | significantly decreased | no effect | did not alter; also recorded: no effect | Smaller | not result in a change
